Measurements: patent US12624067B2, “Cyclic peptide, cell scaffold material, cell separating material, and medium” (FUJIFILM Corporation, priority 2019, dated 2026)
Read-outs that look alike come from different tables or passages of the source. Numbered stars: 1 amine (or outer) side, 2 acyl side, 3 side chain; on linkers, the order of the positions; unused ones are H or OH. Bridge positions count the residues as written; N and C are the ends. Square brackets hold non-standard residues; d marks the D form. Peptide text beside a SMILES is read from it. hCys = N[C@@H](CCS)C(=O)O; Orn = NCCC[C@H](N)C(=O)O; X1 = O=C(C[*:1])[*:2]; X2 = O=C(C[*:2])[*:1]

Key:
human integrin αvβ5 = human integrin αvβ5 (Homo sapiens, UniProt P06756+P18084); test: Evaluation of integrin binding property (surface plasmon resonance, Biacore 3000, immobilized cyclic peptide)
In short: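 Cyclic peptides amine-coupled to a CM5 chip via EDC/NHS, with a blank reference channel; integrin injected 10 min at 25 °C at 30, 100, 300 and 1,000 nM in HEPES pH 7.4, 150 mM NaCl, 5 mM MgCl2, then 30 min buffer flow, EDTA regeneration. Kd from reference-subtracted responses, graded by category.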

[1] = Evaluation of molecule stability (alkali treatment, LC/MS residual rate); assay type: physicochemical; settings: 500 μM peptide plus equivalent of 1 M sodium hydroxide, 15° C., 20 minutes, LC/MS peak area
In short: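 Cyclic peptide at 500 μM in water treated with an equivalent of 1 M NaOH for 20 minutes at 15° C. Residual rate is the total LC/MS peak area after treatment relative to that before treatment, set as 100%. Analysis on a C18 column at 45° C with ammonium formate pH 3 eluents and ESI detection.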

[2] = peptide immobilized on CM5 sensor chip, human integrin αvβ5 30-1,000 nM, 25° C., HEPES buffer with 5 mM magnesium chloride, read-out: Integrin binding property (dissociation constant)

Sequence of human integrin αvβ5 (P06756 31-889 limits assumed): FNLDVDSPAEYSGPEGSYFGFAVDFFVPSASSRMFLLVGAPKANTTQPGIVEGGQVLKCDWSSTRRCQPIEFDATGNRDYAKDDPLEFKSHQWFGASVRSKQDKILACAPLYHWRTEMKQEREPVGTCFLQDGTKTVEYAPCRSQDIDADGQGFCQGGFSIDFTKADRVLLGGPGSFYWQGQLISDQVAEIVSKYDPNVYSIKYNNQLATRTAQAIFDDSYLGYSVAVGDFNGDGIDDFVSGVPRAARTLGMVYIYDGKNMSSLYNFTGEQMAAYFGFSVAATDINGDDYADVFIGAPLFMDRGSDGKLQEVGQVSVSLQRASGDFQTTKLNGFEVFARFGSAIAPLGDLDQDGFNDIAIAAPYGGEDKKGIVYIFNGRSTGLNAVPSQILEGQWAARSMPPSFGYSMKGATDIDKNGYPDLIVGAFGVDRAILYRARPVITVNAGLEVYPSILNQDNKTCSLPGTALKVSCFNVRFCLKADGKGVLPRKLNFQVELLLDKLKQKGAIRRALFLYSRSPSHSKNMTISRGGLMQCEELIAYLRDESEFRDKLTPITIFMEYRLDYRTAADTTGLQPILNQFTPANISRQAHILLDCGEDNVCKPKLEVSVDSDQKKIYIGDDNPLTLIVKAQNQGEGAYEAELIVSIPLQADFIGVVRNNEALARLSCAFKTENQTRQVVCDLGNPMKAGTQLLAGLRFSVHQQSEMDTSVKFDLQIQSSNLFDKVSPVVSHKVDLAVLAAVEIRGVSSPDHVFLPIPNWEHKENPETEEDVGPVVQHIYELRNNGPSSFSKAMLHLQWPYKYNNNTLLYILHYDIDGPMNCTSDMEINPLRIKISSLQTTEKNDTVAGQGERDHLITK
Sequence of human integrin αvβ5 (P06756 891-1048 partner limits assumed): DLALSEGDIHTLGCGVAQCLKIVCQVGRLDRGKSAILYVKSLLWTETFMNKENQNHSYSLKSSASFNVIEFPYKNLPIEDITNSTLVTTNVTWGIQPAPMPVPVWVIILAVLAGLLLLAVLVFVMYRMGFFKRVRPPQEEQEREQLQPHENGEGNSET
Sequence of human integrin αvβ5 (P18084 24-799): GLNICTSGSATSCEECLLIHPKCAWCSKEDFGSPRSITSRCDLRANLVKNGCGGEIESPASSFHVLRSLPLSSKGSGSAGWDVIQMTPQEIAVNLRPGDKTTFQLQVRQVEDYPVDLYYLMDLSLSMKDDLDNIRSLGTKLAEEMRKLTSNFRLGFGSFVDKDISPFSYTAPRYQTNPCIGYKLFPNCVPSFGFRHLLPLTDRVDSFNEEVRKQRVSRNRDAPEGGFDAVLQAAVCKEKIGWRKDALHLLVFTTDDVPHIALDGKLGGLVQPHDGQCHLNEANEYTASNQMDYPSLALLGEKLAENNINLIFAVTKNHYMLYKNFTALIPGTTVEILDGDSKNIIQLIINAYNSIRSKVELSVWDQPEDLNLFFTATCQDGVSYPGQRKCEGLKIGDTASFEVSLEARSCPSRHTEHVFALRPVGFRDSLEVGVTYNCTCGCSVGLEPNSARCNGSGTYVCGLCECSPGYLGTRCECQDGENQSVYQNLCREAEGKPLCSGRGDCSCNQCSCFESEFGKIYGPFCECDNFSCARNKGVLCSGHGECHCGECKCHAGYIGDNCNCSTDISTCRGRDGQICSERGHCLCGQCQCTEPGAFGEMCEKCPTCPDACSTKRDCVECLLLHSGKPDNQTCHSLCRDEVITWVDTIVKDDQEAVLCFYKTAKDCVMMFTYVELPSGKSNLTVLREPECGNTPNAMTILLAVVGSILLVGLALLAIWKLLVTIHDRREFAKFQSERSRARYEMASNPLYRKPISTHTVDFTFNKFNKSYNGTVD

SMILES | Kd (human integrin αvβ5; [2]) | Molecule stability (cyclic peptide residual rate) [1] | Kd (human integrin αvβ5)
C[C@H](N)C(=O)N[C@H]1CCSCC(=O)NCCCC[C@@H](C(=O)N[C@@H](CCCCN)C(=O)N[C@@H](CCCCN)C(=O)N[C@@H](CCCCN)C(=O)O)NC(=O)[C@H](Cc2ccccc2)NC(=O)[C@@H]2CCCCNC(=O)CSCC[C@H](NC1=O)C(=O)N[C@@H](CCCNC(=N)N)C(=O)NCC(=O)N[C@@H](CC(=O)O)C(=O)N2 [Cyclic peptide 36] (H-A[hCys][hCys]RGDKFKKKK-OH; linker 2-9, 3-7 via X1) | 50 to 100 nM | A (The residual rate of the cyclic peptide is 70% or more.) | 
C[C@H](NC(=O)[C@@H]1CCCCNC(=O)CSCC[C@H](NC(=O)[C@H](CCCCN)NC(=O)[C@H](CCCCN)NC(=O)[C@@H](N)CCCCN)C(=O)N[C@H]2CCSCC(=O)NCCCC[C@H](NC(=O)[C@H](CC(=O)O)NC(=O)CNC(=O)[C@H](CCCNC(=N)N)NC2=O)C(=O)N[C@@H](Cc2ccccc2)C(=O)N1)C(=O)O [Cyclic peptide 37] (H-KKK[hCys][hCys]RGDKFKA-OH; linker 4-11, 5-9 via X1) | 50 to 100 nM | A (The residual rate of the cyclic peptide is 70% or more.) | 
CC(C)[C@@H]1NC(=O)CSCC[C@@H](C(=O)N[C@@H](CCCCN)C(=O)N[C@@H](CCCCN)C(=O)N[C@@H](CCCCN)C(=O)O)NC(=O)[C@H](Cc2ccccc2)NC(=O)[C@@H]2CCSCC(=O)NCCC[C@H](NC1=O)C(=O)N[C@@H](CCCNC(=N)N)C(=O)NCC(=O)N[C@@H](CC(=O)O)C(=O)N2 [Cyclic peptide 38] ({CH2CO}-V[Orn]RGD[hCys]F[hCys]KKK-OH; linker 2-6 via X2; thioether N-8) | < 50 nM | A (The residual rate of the cyclic peptide is 70% or more.) | 
N=C(N)NCCC[C@@H]1NC(=O)[C@@H]2CCCNC(=O)CSCC[C@H](NC(=O)[C@H](CC(=O)O)NC(=O)CNC1=O)C(=O)N[C@@H](Cc1ccccc1)C(=O)N[C@H](C(=O)N[C@@H](CCCCN)C(=O)N[C@@H](CCCCN)C(=O)N[C@@H](CCCCN)C(=O)O)CCSCC(=O)N[C@@H](CC(=O)O)C(=O)N2 [Cyclic peptide 39] ({CH2CO}-D[Orn]RGD[hCys]F[hCys]KKK-OH; linker 2-6 via X2; thioether N-8) | < 50 nM | A (The residual rate of the cyclic peptide is 70% or more.) | 
N=C(N)NCCC[C@@H]1NC(=O)[C@@H]2CCCNC(=O)CSCC[C@H](NC(=O)[C@H](CC(=O)O)NC(=O)CNC1=O)C(=O)N[C@@H](Cc1ccccc1)C(=O)N[C@H](C(=O)N[C@@H](CCCCN)C(=O)N[C@@H](CCCCN)C(=O)N[C@@H](CCCCN)C(=O)O)CCSCC(=O)N[C@@H](CCC(=O)O)C(=O)N2 [Cyclic peptide 40] ({CH2CO}-E[Orn]RGD[hCys]F[hCys]KKK-OH; linker 2-6 via X2; thioether N-8) | < 50 nM | A (The residual rate of the cyclic peptide is 70% or more.) | 
C[C@H](N)C(=O)N[C@H]1CSSC[C@@H](C(=O)NCC(=O)N[C@@H](CCCCN)C(=O)N[C@@H](CCCCN)C(=O)N[C@@H](CCCCN)C(=O)O)NC(=O)[C@H](Cc2ccccc2)NC(=O)[C@@H]2CSSC[C@H](NC(=O)[C@H](CC(=O)O)NC1=O)C(=O)N[C@@H](CCCNC(=N)N)C(=O)NCC(=O)N[C@@H](CC(=O)O)C(=O)N2 [Cyclic peptide 49, ACDCRGDCFCGKKK, reference compound] (H-ACDCRGDCFCGKKK-OH; disulfide 2-10, 4-8) |  | D (The residual rate of the cyclic peptide is less than 30%.) | < 50 nM

The next lines start with results.

Kd (human integrin αvβ5; [2]) | SMILES | Molecule stability (cyclic peptide residual rate) [1] | Kd (human integrin αvβ5)
50 to 100 nM | CC(C)[C@@H]1NC(=O)CSCC[C@@H](C(=O)N[C@@H](CCCCN)C(=O)N[C@@H](CCCCN)C(=O)N[C@@H](CCCCN)C(=O)O)NC(=O)[C@H](Cc2ccccc2)NC(=O)[C@@H]2CCCNC(=O)CSCC[C@H](NC1=O)C(=O)N[C@@H](CCCNC(=N)N)C(=O)NCC(=O)N[C@@H](CC(=O)O)C(=O)N2 [Cyclic peptide 41] ({CH2CO}-V[hCys]RGD[Orn]F[hCys]KKK-OH; linker 2-6 via X1; thioether N-8) | A (The residual rate of the cyclic peptide is 70% or more.) | 
< 50 nM | N=C(N)NCCC[C@@H]1NC(=O)[C@@H]2CCSCC(=O)NCCC[C@H](NC(=O)[C@H](CC(=O)O)NC(=O)CNC1=O)C(=O)N[C@@H](Cc1ccccc1)C(=O)N[C@H](C(=O)N[C@@H](CCCCN)C(=O)N[C@@H](CCCCN)C(=O)N[C@@H](CCCCN)C(=O)O)CCSCC(=O)N[C@@H](CC(=O)O)C(=O)N2 [Cyclic peptide 42] ({CH2CO}-D[hCys]RGD[Orn]F[hCys]KKK-OH; linker 2-6 via X1; thioether N-8) | A (The residual rate of the cyclic peptide is 70% or more.) | 
< 50 nM | N=C(N)NCCC[C@@H]1NC(=O)[C@@H]2CCSCC(=O)NCCC[C@H](NC(=O)[C@H](CC(=O)O)NC(=O)CNC1=O)C(=O)N[C@@H](Cc1ccccc1)C(=O)N[C@H](C(=O)N[C@@H](CCCCN)C(=O)N[C@@H](CCCCN)C(=O)N[C@@H](CCCCN)C(=O)O)CCSCC(=O)N[C@@H](CCC(=O)O)C(=O)N2 [Cyclic peptide 43] ({CH2CO}-E[hCys]RGD[Orn]F[hCys]KKK-OH; linker 2-6 via X1; thioether N-8) | A (The residual rate of the cyclic peptide is 70% or more.) | 
< 50 nM | CC(C)[C@@H]1NC(=O)CSCC[C@@H](C(=O)N[C@@H](C)C(=O)N[C@@H](CCCCN)C(=O)N[C@@H](CCCCN)C(=O)N[C@@H](CCCCN)C(=O)O)NC(=O)[C@H](Cc2ccccc2)NC(=O)[C@@H]2CCCCNC(=O)CSCC[C@H](NC1=O)C(=O)N[C@@H](CCCNC(=N)N)C(=O)NCC(=O)N[C@@H](CC(=O)O)C(=O)N2 [Cyclic peptide 44] ({CH2CO}-V[hCys]RGDKF[hCys]AKKK-OH; linker 2-6 via X1; thioether N-8) | A (The residual rate of the cyclic peptide is 70% or more.) | 
< 50 nM | C[C@H](NC(=O)[C@@H]1CCSCC(=O)N[C@@H](CC(=O)O)C(=O)N[C@H]2CCSCC(=O)NCCCC[C@H](NC(=O)[C@H](CC(=O)O)NC(=O)CNC(=O)[C@H](CCCNC(=N)N)NC2=O)C(=O)N[C@@H](Cc2ccccc2)C(=O)N1)C(=O)N[C@@H](CCCCN)C(=O)N[C@@H](CCCCN)C(=O)N[C@@H](CCCCN)C(=O)O [Cyclic peptide 45] ({CH2CO}-D[hCys]RGDKF[hCys]AKKK-OH; linker 2-6 via X1; thioether N-8) | A (The residual rate of the cyclic peptide is 70% or more.) | 
< 50 nM | C[C@H](NC(=O)[C@@H]1CCSCC(=O)N[C@@H](CCC(=O)O)C(=O)N[C@H]2CCSCC(=O)NCCCC[C@H](NC(=O)[C@H](CC(=O)O)NC(=O)CNC(=O)[C@H](CCCNC(=N)N)NC2=O)C(=O)N[C@@H](Cc2ccccc2)C(=O)N1)C(=O)N[C@@H](CCCCN)C(=O)N[C@@H](CCCCN)C(=O)N[C@@H](CCCCN)C(=O)O [Cyclic peptide 46] ({CH2CO}-E[hCys]RGDKF[hCys]AKKK-OH; linker 2-6 via X1; thioether N-8) | A (The residual rate of the cyclic peptide is 70% or more.) | 
< 50 nM | C[C@H](NC(=O)[C@@H]1CCSCC(=O)N[C@@H](CCC(=O)O)C(=O)N[C@H]2CCSCC(=O)NCCC[C@H](NC(=O)[C@H](CC(=O)O)NC(=O)CNC(=O)[C@H](CCCNC(=N)N)NC2=O)C(=O)N[C@@H](Cc2ccccc2)C(=O)N1)C(=O)N[C@@H](CCCCN)C(=O)N[C@@H](CCCCN)C(=O)N[C@@H](CCCCN)C(=O)O [Cyclic peptide 47] ({CH2CO}-E[hCys]RGD[Orn]F[hCys]AKKK-OH; linker 2-6 via X1; thioether N-8) | A (The residual rate of the cyclic peptide is 70% or more.) | 
